# Where two headings read alike, the source gives them in different places.
# Tests used:
# [1] = system: HIV-infected cells (T cell line SupT1); assay: Syncytium-formation assay (number of multinucleate cells); format: cell-based; details: three-day incubation
# Procedure: To evaluate toxicity of the extracted substances on a T cell line (SupT1), maximum acceptable concentrations of antiviral agents were determined as follows:
# After incubation, the cells were treated with trypan blue. The number of cells that excluded the dye was counted using a hemocytometer. "TCID50 " is defined as the 50% tissue culture-infective dose. (Reference: Techniques in HIV research, ed. Aldovini, A., and Walter, B. D., Stockton Press, N.Y. Unitd States, Chapter 4. Quantitative assay for virus infectivity, pp. 71-73, 1990.) The 50% tissue culture-infective dose (TCID50) is calculated using the method of Reed and Muench (Dulbecco, R., "Endpoint Method-Measurement of the infectious titer of a viral sample" in the chapter entitled: The Nature of Viruses in Virology, Second Edition, J. P. Lippincott, Philadelphia, pp. 22-25, 1988). This method is applicable for measuring the infectious titer of a viral sample from an assay involving a series of progressive dilutions of virus. To generate the 50% endpoint dilution, an empirical pooling of the results is done after reading the plate for visible infection at all of the dilutions tested. In cell cultures, the tissue culture infective dose (TCID50) is the dilution of virus suspension that infects 50% of the cell cultures as measured by visible CPE.
# After a three-day incubation the number of multinucleate cells in each culture were counted. As comparative tests, similar experiments were performed using AZT or berberine, rather than the extract of the present invention, to treat the cells.
# reverse transcriptase = assay: Reverse transcriptase activity of HIV-infected H9 cells; format: cell-based; details: 0.5 μg/ml
# Procedure: The effect of the extract of the present invention on reverse transcriptase activity and on viral replication was also measured in H9 host cells. HIV infected H9 cells were cultured in RPMI 1640 supplemented with 10% (v/v) of heat-inactivated fetal calf serum and 1% (v/v) […] Every third day 1/4 of the cultures were transferred to new media containing the same concentration of the extract. The cultures were harvested after 9 days and centrifuged for 3 minutes in an Eppendorf centrifuge. 600 μl of supernatant was mixed 300 μl of 30% polyethylene glycol (PEG) and then centrifuged for 10 minutes. The pellet was resuspended in RT suspension buffer (50 mM Tris, pH 7.5, 1 mM DTT, 20% glycerol, 0.25% Triton X-100). These virus samples were frozen at -70° C. until assayed. Aliquots of virus (10 μl) were incubated with 20 μl of a cocktail containing 50 mM Tris, pH 7.5, 5 mM DTT, 5 mM MgCl2, 150 mM KCl, 0.05% Triton X-100, 0.3 mM glutathione, 0.5 mM EGTA, 50 μg/ml poly(rA)dT, 10μ Ci thymidine triphosphate, and 17.25 μl distilled water for 1 hour at 37° C. […] Precipitates were collected on Whatman GF/C glass fibers, washed several times with ice-cold 5% TCA and once with 70% ethanol, air dried and counted in a liquid scintillation counter.
# [2] = system: ABEI-microperoxidase-H2 O2 system; assay: Antioxidant activity by chemiluminescence (inhibition of light intensity); format: biochemical
# Excerpt: Therefore, we characterized the extract of the present invention with respect to its ability to function as an antioxidant. We compared the extract to the known antioxidant t-butylhydroxy toluene (BHT) using a chemiluminescence assay developed in this laboratory. […] Therefore, it is proposed that the extract has anti-HIV effect.
# Materials: microperoxidase (MP, Sigma Chemical Company, St. Louis, Mo., U.S.A.), aminobuty ethylisoluminol (ABEI, Sigma Chemical Company, St. Louis, Mo., U.S.A.), t-butylhydroxy toluene (BHT, Sigma Chemical Company, St. Louis, Mo., U.S.A.).
# An ABEI-microperoxidase-H2 O2 system was used to assay the antioxidant activity of the extract of the present invention and also that of the known antioxidant BHT. The activity of berberine as an antioxidant was also assessed.
# ABEI was used at 0.18 μM. Compounds being assayed were used at 10 mg/ml as a maximum concentration and also at serial dilutions. 200 μL of ABEI, t-butylhydroxy toluene (BHT), pure berberine or the extracted substance at 10 mg/ml (or a serial dilution thereof) were put in a polystyrene tube suitable for use in a Berthold 9502 luminometer. Hydrogen peroxide (0.35%) and microperoxidase (0.01 mg/ml) were autoinjected into the tube to start the chemiluminescence reaction. Chemiluminescence from the reaction was measured for 2 seconds using a Berthold Luminometer 9502 (Clilumat). In control samples distilled water and ethyl alcohol were used. The antioxidant activity of the extract was compared with commercial antioxidant BHT. The antioxidant activity of BHT has been studied for many years (Branen, A. L.; Toxicological and biochemistry of butylated hydrosyanisole and butylated hydroxytoluene. J. Am. Oil Chem. Soc. 52:59, 1975). BHT removes free radicals in oxidation reactions, and it inhibits oxidation of materials.
# An antioxidant present in the sample will prevent ABEI from being oxidized by microperoxidase, thus inhibiting chemiluminescence. Antioxidant activity was calculated from the chemiluminescence intensity using the following expression: [formula]
# [3] = system: HIV reverse transcriptase; details: cited from earlier work
# HIV = details: Tan et al. 1992; cited from earlier work
# [4] = with respect to the template-primer complex, (rA)n, (dT)
# [5] = with respect to the triphosphate substrate, dTTP
smiles,measurement,setting,value
"Cc1cn([C@H]2C[C@H](N=[N+]=[N-])[C@@H](CO)O2)c(=O)[nH]c1=O [AZT, azidothymidine]",No. of Multiple-Nucleate Cells,[1]; 0.2 μg/mL,0
same,No. of Multiple-Nucleate Cells,[1]; 0.5 μg/mL,1
same,No. of Multiple-Nucleate Cells,[1]; 1 μg/mL,0
same,No. of Multiple-Nucleate Cells,[1]; 5 μg/mL,0
"COc1ccc2cc3[n+](cc2c1OC)CCc1cc2c(cc1-3)OCO2 [Berberine, berberine]",No. of Multiple-Nucleate Cells,[1]; 0.1 μg/mL,8
same,No. of Multiple-Nucleate Cells,[1]; 0.5 μg/mL,5
same,No. of Multiple-Nucleate Cells,[1]; 1 μg/mL,2
same,No. of Multiple-Nucleate Cells,[1]; 3 μg/mL,1
same,inhibition of viral RT activity,reverse transcriptase,marked inhibitory effect on RT activity
same,Percentage of inhibition of light intensity,[2]; 0.63 mg/ml,11%
same,Percentage of inhibition of light intensity,[2]; 1.25 mg/ml,12%
same,Percentage of inhibition of light intensity,[2]; 2.5 mg/ml,12%
same,Percentage of inhibition of light intensity,[2]; 5.0 mg/ml,21%
same,Percentage of inhibition of light intensity,[2]; 10.0 mg/ml,57%
same,antioxidant activity compared with the total extract,[2]; 0.63-10.0 mg/ml,much lower
O=c1cc(-c2ccccc2)oc2cc(O)c(O)c(O)c12 [baicalein],mode of inhibition,[3]; [4],partially competitive
same,mode of inhibition,[3]; [5],noncompetitive
COc1ccc2cc3[n+](cc2c1OC)CCc1cc2c(cc1-3)OCO2 [berberine chloride],order of anti-HIV effect,HIV,jatrorrhizine chloride>berberine chloride>coptisine chloride
c1c2c(cc3c1OCO3)-c1cc3ccc4c(c3c[n+]1CC2)OCO4 [coptisine chloride],order of anti-HIV effect,HIV,jatrorrhizine chloride>berberine chloride>coptisine chloride
COc1cc2c(cc1O)CC[n+]1cc3c(OC)c(OC)ccc3cc1-2 [jatrorrhizine chloride],order of anti-HIV effect,HIV,jatrorrhizine chloride>berberine chloride>coptisine chloride
O=c1c(O)c(-c2ccc(O)c(O)c2)oc2cc(O)c(O)c(O)c12 [quercetagetin],mode of inhibition,[3]; [4],partially competitive
same,mode of inhibition,[3]; [5],noncompetitive
O=c1c(O)c(-c2ccc(O)c(O)c2)oc2cc(O)cc(O)c12 [quercetin],mode of inhibition,[3]; [4],partially competitive
same,mode of inhibition,[3]; [5],noncompetitive

# — patent publication US5928645A, “Extracted substance having anti-HIV activity” (Young Bok Han & Korean Assoc. of Creation Research, priority 1992, dated 1999)
